Where no end group is shown, it is not given here.
Columns and labels:
[1] = target: T1, membranes of SK-N-MC cells, which express the CGRP receptor (Homo sapiens, UniProt O60894+Q16602); details: read-out: IC50 reported for binding to membranes of SK-N-MC cells; cited from earlier work
T1 construct: membranes of SK-N-MC cells, which express the CGRP receptor; host or cells: SK-N-MC cell membranes (endogenous receptor)

[2] = target: T2, RAMP2-CLR ECD (Homo sapiens, UniProt O60895+Q16602, L106R); assay: AlphaLISA/AlphaScreen competition peptide binding assay, AM1 receptor ECD complex
T2 construct: MBP-hRAMP2.55-140 [L106R]-(Gly-Ser-Ala)3-hCLR.29-144-H6; made in house; host or cells: E. coli
Protocol: Protein production and characterization and peptides. Plasmid construction, mutagenesis, protein expression, purification, and the AlphaScreen® peptide binding assay (Perkin-Elmer, Waltham, Mass.) were performed as previously described with minor modifications to the AlphaScreen® assay (Hill and Pioszak, Protein expression and purification (2013) 88:107-113; and Moad and Pioszak, Protein Sci. (2013) 22:1775-85). Synthetic peptides were from RS Synthesis (Louisville, Ky.), Bachem (Bubendorf, Switzerland), or were synthesized in-house. […]
FIG. 1 depicts in (B) binding of an AM C-terminal peptide, AM(37-52)NH2, and the two variant AM C-terminal peptides to purified AM1 receptor extracellular domain complex (CLR:RAMP2). The ability of the indicated peptides to displace a Biotin-CGRP probe (50 nM) from purified MBP-RAMP1 ECD-(GS)5-CTR ECD-H6 fusion protein (5 nM) or a Biotin-AM probe (25 nM) from purified MBP-RAMP2 ECD [L106R]-(GS)5-[…] ECD-H6 fusion protein (5 nM) was assessed by AlphaLISA® luminescent peptide binding assay (Perkin-Elmer, Waltham, Mass.). […] The reactions were incubated for 5 hours at room temperature to reach equilibrium, and the luminescence was measured in white 384-well plates using a BMG LABTECH's POLARstar Omega plate reader (Ortenberg, Germany). […]

[3] = target: T3, RAMP1-CLR ECD (CGRP); purified MBP-RAMP1 ECD-(GS)5-CLR ECD-H6 fusion protein (Homo sapiens, UniProt O60894+Q16602); assay: Fluorescence polarization (FP) peptide binding competition assay, CGRP receptor ECD complex; details: for Receptor Selectivity (in words): CGRP vs AM1 receptor ECD complexes; for Receptor Selectivity (in words) / Receptor Selectivity, fold for CGRP: FP assay; for Ki: RAMP1-CLR ECD (CGRP) KI (nM), FP competition, FITC-AM W/W probe 7 nM, fusion protein 15 nM; for Receptor Selectivity, fold for CGRP: CGRP (RAMP1-CLR ECD) over AM1 (RAMP2-CLR ECD)
T3 construct: MBP-hRAMP1.24-111-(Gly-Ser)5-hCLR.29-144-H6; made in house; host or cells: E. coli
Protocol: Fluorescence polarization peptide binding assay. […] The reactions (50 μL) were incubated for 2 hours at room temperature to reach equilibrium, and the anisotropy was measured in black half-area 96-well plates using a BMG LABTECH's POLARstar® Omega plate reader (Ortenberg, Germany). The reaction buffer was 50 mM HEPES, pH 7.5, 150 mM NaCl, 0.5 mg/ml fatty acid-free BSA, 0.5 mM EDTA, 0.5 mM maltose. Ki values were calculated using nonlinear regression fitting of the competition curves to the exact analytical equations of Roehrl et al. (Biochemistry (2004) 43:16056-66) using GraphPad Prism 5.0 (GraphPad Software, San Diego Calif.).
(§1) The ability of the indicated peptides to displace a FITC-Ahx-AM(37-52)NH2 [S45W, Q50W] probe (7 nM) from purified MBP-RAMP1 ECD-(GS)5-CLR ECD-H6 fusion protein (15 nM) was assessed by fluorescence polarization (anisotropy). The reactions were incubated for 2 hours at room temperature to reach equilibrium, and the anisotropy was measured in black half-area 96-well plates using a BMG LABTECH's POLARstar® Omega plate reader (Ortenberg, Germany). The reaction buffer was 50 mM HEPES, pH 7.5, 150 mM NaCl, 0.5 mg/ml fatty acid-free BSA, 0.5 mM EDTA, 0.5 mM maltose. KI values were calculated using nonlinear regression fitting of the competition curves to the exact analytical equations of Roehrl et al. (Biochemistry (2004) 43:16056-66) using GraphPad Prism 5.0 (GraphPad Software, San Diego Calif.).
as §1, with “Single representative experiments conducted with duplicate samples are shown. Error bars are S.E.M. The ability” for “The ability”, “displace a FITC-Ahx-AM(37-52)NH2[S45W, Q50W] probe” for “displace a FITC-Ahx-AM(37-52)NH2 [S45W, Q50W] probe”
A fluorescence polarization/anisotropy (FP) peptide-binding assay was developed using N-terminally FITC-labeled AM(37-52) S45W/Q50W as the probe, hereafter “FITC-AM W/W.” The probe was custom synthesized and HPLC-purified by RS Synthesis. The large size difference between the MBP-RAMP ECD-CLR ECD fusion proteins (˜65 kDa) and the probe (˜2.5 kDa) ensures a significant anisotropy difference between bound and free states of the probe. […] Kd values for the probe at each of the tethered ECD fusion proteins were determined in equilibrium saturation binding experiments (data not shown), and KI values were determined for unlabeled peptides in equilibrium competition experiments (Table 1; FIGS. 2-5). The data were analyzed according to exact analytical equations using non-linear regression curve fitting in GraphPad Prism 5.0 (GraphPad Software) via user-defined equations.

[4] = target: T4, AMY1 receptor extracellular domain complex; purified MBP-RAMP1 ECD-(GS)5-CTR ECD-H6 fusion protein (Homo sapiens, UniProt O60894+P30988); assay: AlphaLISA luminescent peptide binding assay, AMY1 receptor ECD complex; details: displacement of Biotin-AC413 probe (100 nM), fusion protein 200 nM
T4 construct: purified MBP-RAMP1 ECD-(GS)5-CTR ECD-H6 fusion protein (200 nM); made in house; host or cells: HEK293T
Protocol: A single representative experiment conducted with duplicate samples is shown. Error bars are S.E.M. The ability of the indicated peptides to displace a Biotin-AC413 probe (100 nM) from purified MBP-RAMP1 ECD-(GS)5-CTR ECD-H6 fusion protein (200 nM) was assessed by AlphaLISA® luminescent peptide binding assay (Perkin-Elmer, Waltham, Mass.) as described in Lee et al. (J Biol. Chem (2016) 291:8686-8700). The reactions were incubated for 5 hours at room temperature to reach equilibrium, and the luminescence was measured in white 384-well plates using a BMG LABTECH's POLARstar® Omega plate reader (Ortenberg, Germany). The reaction buffer was 50 mM MOPS, pH 7.4, 150 mM NaCl, 7 mg/ml fatty acid-free BSA and the streptavidin-coated donor beads and MBP-antibody coated acceptor beads were at 15 μg/ml each. IC50 values were calculated using nonlinear regression fitting of the competition curves to a three-parameter, one-site competitive binding equation in GraphPad Prism 5.0 (GraphPad Software, San Diego Calif.).

[5] = target: T5, full-length AM1 (RAMP2:CLR) receptor transiently expressed in COS-7 cells (Homo sapiens, UniProt O60895+Q16602); assay: Antagonism of AM-activated cAMP signaling in COS-7 cells; type: cell-based; details: 500 nM antagonist
T5 construct: Plasmids for expression of tagged full-length CLR and RAMP1 or RAMP2 receptors in mammalian cells were previously described; expressed in transfected cells; host or cells: COS-7
Protocol: (§2) Cell-based assays. Transfection of COS-7 cells, cAMP assay, ELISA for cell surface expression, and data analysis were as previously described (Barwell et al., Peptides (2010) 31:170-176; Watkins et al., Br J Pharmacol (2014) 171:772-788).
(§3) A single representative experiment conducted with duplicate samples is shown. Error bars are S.E.M. The experiments were performed as described in Lee et al. (J Biol. Chem (2016) 291:8686-8700). […] (B) depicts antagonism of AM-activated cAMP signaling at the AM1 receptor.
(§4) Forty-eight hours after transfection, the cells were pre-incubated for 30 minutes in the absence or presence of 500 nM AM(37-52)NH2 [S45W/K46L/Q50W/Y52F], and then stimulated for 15 minutes with increasing concentrations of agonist peptide in the absence or presence of 500 nM antagonist. The cells were lysed, and cAMP was quantitated using a LANCE TR-FRET cAMP kit (Perkin-Elmer Waltham, Mass.).

[6] = target: T6, full-length CGRP (RAMP1:CLR) receptor transiently expressed in COS-7 cells (Homo sapiens, UniProt O60894+Q16602); assay: Antagonism of CGRP-activated cAMP signaling in COS-7 cells; type: cell-based
T6 construct: Plasmids for expression of tagged full-length CLR and RAMP1 or RAMP2 receptors in mammalian cells were previously described; expressed in transfected cells; host or cells: COS-7
Protocol: as §2, §3, §4

| Compound | Receptor Selectivity (in words) [3] | Ki [3] | IC50 [4] | Receptor Selectivity, fold for CGRP [3] | also measured |
| --- | --- | --- | --- | --- | --- |
| CC(C)[C@H](NC(=O)[C@H](CC(=O)O)NC(=O)[C@@H](NC(=O)[C@@H]1CCCN1C(=O)[C@@H](NC(=O)[C@@H](N)Cc1ccccc1)C(C)C)[C@@H](C)O)C(=O)NCC(=O)N1CCC[C@H]1C(=O)N[C@@H](Cc1ccccc1)C(=O)N[C@@H](C)C(=O)N[C@@H](Cc1ccccc1)C(N)=O [CGRPmut [N31D/S34P/K35F]] |  |  |  |  | IC50 [1]: 29 nM |
| DKDNVAPRSKISPQGY-NH2 [WT, reference compound] | AM1 over CGRP | > 100000 nM |  |  | IC50 ([2]; read-out: IC50 in AlphaLISA or AlphaScreen competition assays, RAMP2-CLR ECD): 5000 to 15000 nM |
| DKDNVAPRSKISPWGY-NH2 [Peptide Q50W] | Non-selective | 501 nM |  |  | fold increased affinity for RAMP2-CLR ECD ([2]; competition assays, relative to AM(37-52)NH2): ~100 fold |
| DKDNVAPRWLISPWGF-NH2 [S45W/K46L/Q50W/Y52F] |  | 1.91 nM | 16000 nM | 2131-fold for CGRP | antagonism of the AM1 receptor (cAMP) [5]: did not antagonize the AM1 receptor; Kb [6]: 10.5 nM; pA2, antagonism of CGRP-activated cAMP signaling at the CGRP receptor ([6]; 500 nM antagonist, COS-7 cells, Gaddum/Schild EC50 shift, slopes constrained to 1): ~8; affinity for the intact CGRP receptor suggested by pA2 ([6]; COS-7 cells): ~10 nM; Receptor Selectivity, fold for CGRP ([3]; listed as AM(37-52)NH2 [S45W/K46L/Q50W/Y52F]): > 2000 fold |
| FVPTDVGPWSF-NH2 [N31D/S34P/K35W/A36S] |  | 1.32 nM | 260 nM | 1856-fold for CGRP |  |

— patent US10723778B2, “Variants of adrenomedullin and calcitonin gene-related peptide and methods of use” (The Board of Regents of the University of Oklahoma, priority 2015, dated 2020)
